Experiments:
[1] = Absorption and fluorescence spectrum over the time after reaction with glutathione; format: biochemical; details: 10 μM compound, 100 μM glutathione, HEPES pH 7.4, 10% DMSO
Experimental: 10 μM of the compound prepared in Example 2 and 100 μM of glutathione were added to HEPES (4-(2-hydroxyethyl)piperazine-1-ethanesulfonic acid) buffer (10 mM, pH=7.4) containing 10% dimethylsulfoxide (DMSO), followed by observation of absorption spectrum at 25° C. using UV-vis sepctra (Scinco 3000 spectrophotometer, 1 cm quartz cell) over the time. The results are shown in FIG. 8 (spectrum was photographed every 0.5 minute).
The following experiment was performed by the same manner as described in Experimental Example <5-1> except that fluorescence spectrum was observed by using RF-5310/PC fluorescence spectrometer (Shimada, 1 cm quartz cell) instead of observing absorption spectrum via UV-vis sepctra (Scinco 3000 spectrophotometer, 1 cm quartz cell) (λex=730 nm, λem=736 nm, slit:10/10 nm). The results are shown in FIG. 9 (spectrum was photographed every 0.5 minute).

HeLa cells = assay: Changes of glutathione concentration in the presence of an oxidant (H2O2), HeLa cells; format: cell-based, human
Experimental: 100 μM of H2O2, the oxidant, was treated to HeLa cells prepared in Experimental Example 2 containing glutathione, the anti-oxidant, at 37° C. for 30 minutes to induce the changes of glutathione level. 20 μM of the compound prepared in Example 2 was added thereto, followed by culture at 37° C. for 20 minutes. The cells were washed with DPBS (Dulbecco's Phosphate Buffered Saline) three times to eliminate the remaining compound, followed by imaging with confocal laser scanning microscope (Fluoview 1200, Olympus, Japan). At this time, the emitting filter with the excitation wavelength of 635 nm and the band-path (BP) of 655˜755 nm was used.

C57BL/6 mouse [2] = assay: Detection of glutathione in a mouse model with N-methylmaleimide (NMM), IVIS imaging; format: in vivo
Experimental: 200 μL of HEPES (4-(2-hydroxyethyl)piperazine-1-ethanesulfonic acid) buffer (10 mM, pH=7.4) containing 20 mM of N-methylmaleimide (NMM) known as a thiol blocker was administered to each C57BL/6 mouse (7˜8 weeks old, female, Jackson Laboratory) via intravenous injection. 20 minutes later, 200 μL of HEPES (4-(2-hydroxyethyl)piperazine-1-ethanesulfonic acid) buffer (10 mM, pH=7.4) containing 50 mM of the compound prepared in Example 2 was administered to the mouse via intravenous injection. 20 minutes later, the strength of fluorescence was observed by using the epifluorescence mode of In Vivo Imaging System (IVIS) spectrum (Caliper LifeSciences, USA) equipped with the filter having the wavelengths of 675 nm and 720 nm [the strength of fluorescence was measured by Living Image Software 4.3.1 (Caliper Life Sciences, USA)].

C57BL/6 mouse [3] = assay: Detection of glutathione in a mouse model with acetaminophen (APAP), IVIS imaging; format: in vivo
Experimental: 200 μL of HEPES (4-(2-hydroxyethyl)piperazine-1-ethanesulfonic acid) buffer (10 mM, pH=7.4) containing 300 mg/kg of acetaminophen (APAP) known as a pain killer was administered to each C57BL/6 mouse (7˜8 weeks old, female, Jackson Laboratory) via intravenous injection. The said APAP works as a pain killer in vivo when administered at a proper dose, but when treated at over-dose, it can damage organs and also reduce in vivo glutathione. 20 minutes later, 200 μL of HEPES (4-(2-hydroxyethyl)piperazine-1-ethanesulfonic acid) buffer (10 mM, pH=7.4) containing 50 mM of the compound prepared in Example 2 was administered to the mouse via intravenous injection. 20 minutes later, the strength of fluorescence was observed by using the epifluorescence mode of In Vivo Imaging System (IVIS) spectrum (Caliper LifeSciences, USA) equipped with the filter having the wavelengths of 675 nm and 720 nm [the strength of fluorescence was measured by Living Image Software 4.3.1 (Caliper Life Sciences, USA)].

[4] = tested on: neutrophils of peritoneal cells; assay: Capacity of diagnosing sepsis: FACS of neutrophils of peritoneal cells from CLP sepsis mouse; format: cell-based; details: 8 hours, 10 μM compound
Experimental: According to a reference (J Vis Exp. 2011 May 7; (51). pii: 2860. doi: 10.3791/2860), C57BL/6 mouse (7˜8 weeks old, female, Jackson Laboratory) was induced with sepsis by performing CLP (cecal ligation and puncture). 8 hours later, peritoneal cells were extracted from the mouse. The cells were centrifuged and reacted to the neutrophil marker Ly6G (eFluor®450, eBioscience, Cat No. 48-5931) and 10 μM of the compound prepared in Example 2 at room temperature. 25 minutes later, 1 mL of 3% fetal bovine serum (FBS) was added thereto, followed by centrifugation at 3000 rpm for 5 minutes to wash the cells. The cells were resuspended in […] of HEPES (4-(2-hydroxyethyl)piperazine-1-ethanesulfonic acid) buffer (10 mM, pH=7.4), followed by FACS (Fluorescence Activated Cell Sorting) using the data analysis software FlowJo to observe the peaks (The setting for Alexa flour 700 fluorescence was hired, BD FACSVerse™).

neutrophils = assay: Capacity of diagnosing sepsis: bone marrow neutrophils infected with GFP tagged Pseudomonas Aeruginosa 01 (PA01); format: cell-based, mouse
Experimental: Neutrophils were extracted from the bone marrow of C57BL/6 mouse (7˜8 weeks old, female, Jackson Laboratory). The cells were infected with green fluorescent protein (GFP) tagged Pseudomonas Aeruginosa 01 (PA01) that is the causing bacteria of sepsis. 24 hours later, 10 μM of the compound prepared in Example 2 was added thereto, followed by reaction at 37° C. for 20 minutes. At this time, the emitting filter with the excitation wavelength of 635 nm and the band-path (BP) of 655˜755 nm was used.

[5] = mouse treated with NMM together with the compound
[6] = mouse treated with the compound alone
[7] = mouse treated with the compound alone, intravenous injection, 20 minutes

CCCN1/C(=C/C=C2\CCCC(/C=C/C3=[N+](CCC)c4ccccc4C3(C)C)=C2N2CCN(S(=O)(=O)c3cccc4c(N(C)C)cccc34)CC2)C(C)(C)c2ccccc21.[I-] [Example 2, 2-((E)-2-((E)-3-((E)-2-(3,3-dimethyl-1-propylindolin-2-ylidene)ethylidene)-2-(4-(5-(dimethylamino)naphthalene-1-ylsulfonyl)piperazine-1-yl)cyclohex-1-enyl)binyl)-3,3-dimethyl-1-propyl-3H-indolium iodide]
time to maximum fluorescence signal at 736 nm [1]: ≤ 15 min | time to minimum absorption signal at 750 nm ([1]; 25° C.): ≤ 15 min | red fluorescence under confocal laser scanning microscope (HeLa cells; HeLa cells pre-treated with 100 μM H2O2, 20 μM compound): red fluorescence was not observed | red fluorescence under confocal laser scanning microscope (HeLa cells; HeLa cells, 20 μM compound, 20 minutes): strong red fluorescence | reaction to oxidized glutathione, glutathione disulfide (GSSG) (HeLa cells; HeLa cells, H2O2): did not react | red fluorescence in liver, kidney, lung, and spleen, IVIS spectrum (C57BL/6 mouse [2]; [5]): red fluorescence was not observed | red fluorescence of the mouse, IVIS spectrum (C57BL/6 mouse [2]; [5]): red fluorescence was not observed | red fluorescence in liver, kidney, lung, and spleen, IVIS spectrum (C57BL/6 mouse [2]; [6]): strong red fluorescence was observed | red fluorescence of the mouse, IVIS spectrum (C57BL/6 mouse [2]; [7]): strong red fluorescence was observed | red fluorescence of the mouse, IVIS spectrum (C57BL/6 mouse [3]; mouse treated with acetaminophen (APAP) 300 mg/kg together with the compound): red fluorescence was not observed | red fluorescence in liver, kidney, lung, and spleen, IVIS spectrum (C57BL/6 mouse [3]; mouse treated with acetaminophen (APAP) together with the compound): red fluorescence was not observed | red fluorescence in liver, kidney, lung, and spleen, IVIS spectrum (C57BL/6 mouse [3]; [6]): strong red fluorescence was observed | red fluorescence of the mouse, IVIS spectrum (C57BL/6 mouse [3]; [7]): strong red fluorescence was observed | glutathione level in neutrophils detected by the compound (FACS), sepsis mouse compared with normal mouse [4]: reduced | red fluorescence indicating glutathione level in the red fluorescence channel (neutrophils; neutrophils infected with GFP tagged PA01, 10 μM compound): reduced | red fluorescence in the red fluorescent channel (neutrophils; neutrophils not-infected with GFP tagged PA01, 10 μM compound): strong red fluorescence was detected

From patent US9951226B2, “Compound based on cyanine scaffold for diagnosis sepsis by selectively detect glutathione” (EWHA UNIVERSITY—INDUSTRY COLLABORATION FOUNDATION, priority 2014, dated 2018)
